In ChEMBL document CHEMBL1128617, “4-Deoxy-4-aminoavermectins with potent broad spectrum antiparasitic activities” (1995):

Key:
Format in all cases: functional
[1] = system: Trichostrongylus colubriformis; assay: Antiparasitic activity against Trichostrongylus colubriformis at dose of 0.05 mg/kg in sheep anthelmintic test
[2] = system: Teladorsagia circumcincta; assay: Antiparasitic activity against Ostertagia circumcincta at dose of 0.05 mg/kg in sheep anthelmintic test
Artemia = assay: In vitro antiparasitic activity in brine shrimp assay
Trichostrongylus axei [3] = assay: Antiparasitic activity against Trichostrongylus axei at dose of 0.05 mg/kg in sheep anthelmintic test
Cooperia oncophora = assay: Antiparasitic activity against Cooperia oncophora at dose of 0.05 mg/kg in sheep anthelmintic test
Haemonchus contortus [4] = assay: Antiparasitic activity against Haemonchus contortus at dose of 0.05 mg/kg in sheep anthelmintic test
Cooperia [5] = assay: Antiparasitic activity against Cooperia […] at dose of 0.05 mg/kg in sheep anthelmintic test
[6] = system: Oesophagostomum columbianum; assay: Antiparasitic activity against Oesophagostomum columbianum at dose of 0.05 mg/kg in sheep anthelmintic test
Cooperia [7] = assay: Antiparasitic activity against Cooperia […] at dose of 0.10 mg/kg in sheep anthelmintic test; settings: dose 0.1 mg/kg
[8] = system: Oesophagostomum columbianum; assay: Antiparasitic activity against Oesophagostomum columbianum at dose of 0.10 mg/kg in sheep anthelmintic test; settings: dose 0.1 mg/kg
[9] = system: Teladorsagia circumcincta; assay: Antiparasitic activity against Ostertagia circumcincta at dose of 0.10 mg/kg in sheep anthelmintic test; settings: dose 0.1 mg/kg
Haemonchus contortus [10] = assay: Antiparasitic activity against Haemonchus contortus at dose of 0.10 mg/kg in sheep anthelmintic test; settings: dose 0.1 mg/kg
Trichostrongylus axei [11] = assay: Antiparasitic activity against Trichostrongylus axei at dose of 0.10 mg/kg in sheep anthelmintic test; settings: dose 0.1 mg/kg
[12] = system: Trichostrongylus colubriformis; assay: Antiparasitic activity against Trichostrongylus colubriformis at dose of 0.10 mg/kg in sheep anthelmintic test; settings: dose 0.1 mg/kg

CCC(C)[C@H]1O[C@]2(C=C[C@@H]1C)C[C@@H]1C[C@@H](C/C=C(\C)[C@@H](O[C@H]3C[C@H](OC)[C@@H](O[C@H]4C[C@H](OC)[C@H](NC(=O)c5ccccc5)[C@H](C)O4)[C@H](C)O3)[C@@H](C)/C=C/C=C3\CO[C@@H]4[C@H](O)C(C)=C[C@@H](C(=O)O1)[C@]34O)O2 (stereo not given in full)
Reduction [1]: <50%
Reduction [2]: 76%
IC100 (Artemia): 28000 ng/mL
Reduction (Trichostrongylus axei [3]): <50%
Reduction (Cooperia oncophora): >95%
Reduction (Haemonchus contortus [4]): 76%
Reduction (Cooperia [5]): >95%
Reduction [6]: >95%

CCC(C)[C@H]1O[C@]2(C=C[C@@H]1C)C[C@@H]1C[C@@H](C/C=C(\C)[C@@H](O[C@H]3C[C@H](OC)[C@@H](O[C@H]4C[C@H](OC)[C@H](NCCO)[C@H](C)O4)[C@H](C)O3)[C@@H](C)/C=C/C=C3\CO[C@@H]4[C@H](O)C(C)=C[C@@H](C(=O)O1)[C@]34O)O2 (stereo not given in full)
Reduction (Cooperia [7]): >95%
Reduction [8]: >95%
IC100 (Artemia): 3470 ng/mL
Reduction [9]: >95%
Reduction (Haemonchus contortus [10]): >95%
Reduction (Trichostrongylus axei [11]): <50%
Reduction [12]: 76%

CCC(C)[C@H]1O[C@]2(C=C[C@@H]1C)C[C@@H]1C[C@@H](C/C=C(\C)[C@@H](O[C@H]3C[C@H](OC)[C@@H](O[C@H]4C[C@H](OC)[C@H](NC=O)[C@H](C)O4)[C@H](C)O3)[C@@H](C)/C=C/C=C3\CO[C@@H]4[C@H](O)C(C)=C[C@@H](C(=O)O1)[C@]34O)O2 (stereo not given in full)
Reduction [1]: >95%
Reduction [2]: >95%
IC100 (Artemia): 380 ng/mL
Reduction (Trichostrongylus axei [3]): >95%
Reduction (Cooperia oncophora): >95%
Reduction (Haemonchus contortus [4]): >95%
Reduction (Cooperia [5]): >95%
Reduction [6]: >95%

CCC(=O)N[C@@H]1[C@H](C)O[C@@H](O[C@H]2[C@H](C)O[C@@H](O[C@@H]3/C(C)=C/C[C@@H]4C[C@@H](C[C@]5(C=C[C@H](C)[C@@H](C(C)CC)O5)O4)OC(=O)[C@@H]4C=C(C)[C@@H](O)[C@H]5OC/C(=C\C=C\[C@@H]3C)[C@]54O)C[C@@H]2OC)C[C@@H]1OC (stereo not given in full)
Reduction [1]: >95%
Reduction [2]: >95%
IC100 (Artemia): 430 ng/mL
Reduction (Trichostrongylus axei [3]): >95%
Reduction (Cooperia oncophora): >95%
Reduction (Haemonchus contortus [4]): >95%
Reduction (Cooperia [5]): >95%
Reduction [6]: >95%

CCC(C)[C@H]1O[C@]2(C=C[C@@H]1C)C[C@@H]1C[C@@H](C/C=C(\C)[C@@H](O[C@H]3C[C@H](OC)[C@@H](O[C@H]4C[C@H](OC)[C@H](NC)[C@H](C)O4)[C@H](C)O3)[C@@H](C)/C=C/C=C3\CO[C@@H]4[C@H](O)C(C)=C[C@@H](C(=O)O1)[C@]34O)O2 (stereo not given in full)
Reduction (Cooperia [7]): >95%
Reduction [8]: >95%
IC100 (Artemia): 1730 ng/mL
Reduction [9]: >95%
Reduction (Haemonchus contortus [10]): >95%
Reduction (Trichostrongylus axei [11]): >95%
Reduction [12]: 76%

CCC(C)[C@H]1O[C@]2(CC[C@@H]1C)C[C@@H]1C[C@@H](C/C=C(\C)[C@@H](O[C@H]3C[C@H](OC)[C@@H](O[C@H]4C[C@H](OC)[C@H](N)[C@H](C)O4)[C@H](C)O3)[C@@H](C)/C=C/C=C3\CO[C@@H]4[C@H](O)C(C)=C[C@@H](C(=O)O1)[C@]34O)O2 (stereo not given in full)
Reduction (Cooperia [7]): >95%
Reduction [8]: >95%
IC100 (Artemia): 1730 ng/mL
Reduction [9]: >95%
Reduction (Haemonchus contortus [10]): >95%
Reduction (Trichostrongylus axei [11]): <50%
Reduction [12]: <50%

CCC(C)[C@H]1O[C@]2(C=C[C@@H]1C)C[C@@H]1C[C@@H](C/C=C(\C)[C@@H](O[C@H]3C[C@H](OC)[C@@H](O[C@H]4C[C@H](OC)[C@H](NC(=O)C(F)(F)F)[C@H](C)O4)[C@H](C)O3)[C@@H](C)/C=C/C=C3\CO[C@@H]4[C@H](O)C(C)=C[C@@H](C(=O)O1)[C@]34O)O2 (stereo not given in full)
Reduction (Cooperia [7]): >95%
Reduction [8]: >95%
IC100 (Artemia): 27800 ng/mL
Reduction [9]: <50%
Reduction (Haemonchus contortus [10]): >95%
Reduction (Trichostrongylus axei [11]): >95%
Reduction [12]: >95%

CCC(C)[C@H]1O[C@]2(C=C[C@@H]1C)C[C@@H]1C[C@@H](C/C=C(\C)[C@@H](O[C@H]3C[C@H](OC)[C@@H](O[C@H]4C[C@H](OC)[C@H](NC(=O)C(C)(C)C)[C@H](C)O4)[C@H](C)O3)[C@@H](C)/C=C/C=C3\CO[C@@H]4[C@H](O)C(C)=C[C@@H](C(=O)O1)[C@]34O)O2 (stereo not given in full)
Reduction (Cooperia [7]): >95%
Reduction [8]: >95%
IC100 (Artemia): 1730 ng/mL
Reduction [9]: 76%
Reduction (Haemonchus contortus [10]): >95%
Reduction (Trichostrongylus axei [11]): 76%
Reduction [12]: 76%

CCC(C)[C@H]1O[C@]2(C=C[C@@H]1C)C[C@@H]1C[C@@H](C/C=C(\C)[C@@H](O[C@H]3C[C@H](OC)[C@@H](O[C@H]4C[C@H](OC)[C@H](NC(=O)NC)[C@H](C)O4)[C@H](C)O3)[C@@H](C)/C=C/C=C3\CO[C@@H]4[C@H](O)C(C)=C[C@@H](C(=O)O1)[C@]34O)O2 (stereo not given in full)
Reduction (Cooperia [7]): >95%
Reduction [8]: >95%
IC100 (Artemia): 430 ng/mL
Reduction [9]: 51%
Reduction (Haemonchus contortus [10]): >95%
Reduction (Trichostrongylus axei [11]): >95%
Reduction [12]: 76%

CCC(C)[C@H]1O[C@]2(C=C[C@@H]1C)C[C@@H]1C[C@@H](C/C=C(\C)[C@@H](O[C@H]3C[C@H](OC)[C@@H](O[C@H]4C[C@H](OC)[C@@H](O)[C@H](C)O4)[C@H](C)O3)[C@@H](C)/C=C/C=C3\CO[C@@H]4[C@H](O)C(C)=C[C@@H](C(=O)O1)[C@]34O)O2 (stereo not given in full) [AVERMECTIN]
Reduction (Cooperia [7]): >95%
Reduction [8]: >95%
IC100 (Artemia): 296 ng/mL
Reduction [9]: >95%
Reduction (Haemonchus contortus [10]): >95%
Reduction (Trichostrongylus axei [11]): >95%
Reduction [12]: >95%

CCCCCCCCN[C@@H]1[C@H](C)O[C@@H](O[C@H]2[C@H](C)O[C@@H](O[C@@H]3/C(C)=C/C[C@@H]4C[C@@H](C[C@]5(C=C[C@H](C)[C@@H](C(C)CC)O5)O4)OC(=O)[C@@H]4C=C(C)[C@@H](O)[C@H]5OC/C(=C\C=C\[C@@H]3C)[C@]54O)C[C@@H]2OC)C[C@@H]1OC (stereo not given in full)
Reduction (Cooperia [7]): <50%
Reduction [8]: <50%
IC100 (Artemia): >55500 ng/mL
Reduction [9]: <50%
Reduction (Haemonchus contortus [10]): <50%
Reduction (Trichostrongylus axei [11]): <50%
Reduction [12]: <50%

CCC(C)[C@H]1O[C@]2(CC[C@@H]1C)C[C@@H]1C[C@@H](C/C=C(\C)[C@@H](O[C@H]3C[C@H](OC)[C@@H](O[C@H]4C[C@H](OC)[C@H](NC(=O)COC)[C@H](C)O4)[C@H](C)O3)[C@@H](C)/C=C/C=C3\CO[C@@H]4[C@H](O)C(C)=C[C@@H](C(=O)O1)[C@]34O)O2 (stereo not given in full)
Reduction (Cooperia [7]): >95%
Reduction [8]: >95%
IC100 (Artemia): 870 ng/mL
Reduction [9]: >95%
Reduction (Haemonchus contortus [10]): >95%
Reduction (Trichostrongylus axei [11]): >95%
Reduction [12]: 76%

CCC(C)[C@H]1O[C@]2(C=C[C@@H]1C)C[C@@H]1C[C@@H](C/C=C(\C)[C@@H](O[C@H]3C[C@H](OC)[C@@H](O[C@H]4C[C@H](OC)[C@H](NC(C)=O)[C@H](C)O4)[C@H](C)O3)[C@@H](C)/C=C/C=C3\CO[C@@H]4[C@H](O)C(C)=C[C@@H](C(=O)O1)[C@]34O)O2 (stereo not given in full)
Reduction [1]: >95%
Reduction [2]: >95%
IC100 (Artemia): 540 ng/mL
Reduction (Trichostrongylus axei [3]): >95%
Reduction (Haemonchus contortus [4]): >95%
Reduction (Cooperia [5]): >95%
Reduction [6]: >95%

CCC(C)[C@H]1O[C@]2(C=C[C@@H]1C)C[C@@H]1C[C@@H](C/C=C(\C)[C@@H](O[C@H]3C[C@H](OC)[C@@H](O[C@H]4C[C@H](OC)[C@@H](N)[C@H](C)O4)[C@H](C)O3)[C@@H](C)/C=C/C=C3\CO[C@@H]4[C@H](O)C(C)=C[C@@H](C(=O)O1)[C@]34O)O2 (stereo not given in full)
Reduction (Cooperia [7]): >95%
Reduction [8]: >95%
IC100 (Artemia): 2600 ng/mL
Reduction [9]: >95%
Reduction (Haemonchus contortus [10]): >95%
Reduction (Trichostrongylus axei [11]): <50%
Reduction [12]: <50%

CCC(C)[C@H]1O[C@]2(C=C[C@@H]1C)C[C@@H]1C[C@@H](C/C=C(\C)[C@@H](O[C@H]3C[C@H](OC)[C@H](NC(C)=O)[C@H](C)O3)[C@@H](C)/C=C/C=C3\CO[C@@H]4[C@H](O)C(C)=C[C@@H](C(=O)O1)[C@]34O)O2 (stereo not given in full)
Reduction (Cooperia [7]): <50%
Reduction [8]: 76%
IC100 (Artemia): 1300 ng/mL
Reduction [9]: >95%
Reduction (Haemonchus contortus [10]): <50%
Reduction (Trichostrongylus axei [11]): >95%
Reduction [12]: >95%

CCC(C)[C@H]1O[C@]2(C=C[C@@H]1C)C[C@@H]1C[C@@H](C/C=C(\C)[C@@H](O[C@H]3C[C@H](OC)[C@@H](O[C@H]4C[C@H](OC)[C@H](N)[C@H](C)O4)[C@H](C)O3)[C@@H](C)/C=C/C=C3\CO[C@@H]4[C@H](O)C(C)=C[C@@H](C(=O)O1)[C@]34O)O2 (stereo not given in full)
Reduction (Cooperia [7]): >95%
Reduction [8]: >95%
IC100 (Artemia): 1730 ng/mL
Reduction [9]: >95%
Reduction (Haemonchus contortus [10]): >95%
Reduction (Trichostrongylus axei [11]): <50%
Reduction [12]: 51%
